Reference: patent US20130217702A1 (Richter Gedeon Nyrt., priority 2010, published 2013)

Columns and labels:
[1] = target: T1, human recombinant bradykinin B1 receptor (Homo sapiens, UniProt P46663); assay: Human recombinant bradykinin B1 receptor competitive radioligand binding; conditions: hB1 expressed in CHO cells, [3H]-[Des-Arg10] Kallidin radioligand; read-out: B1 binding
T1 construct: host or cells: CHO cells, clone hB1-A5
T1 sequence (P46663 1-353): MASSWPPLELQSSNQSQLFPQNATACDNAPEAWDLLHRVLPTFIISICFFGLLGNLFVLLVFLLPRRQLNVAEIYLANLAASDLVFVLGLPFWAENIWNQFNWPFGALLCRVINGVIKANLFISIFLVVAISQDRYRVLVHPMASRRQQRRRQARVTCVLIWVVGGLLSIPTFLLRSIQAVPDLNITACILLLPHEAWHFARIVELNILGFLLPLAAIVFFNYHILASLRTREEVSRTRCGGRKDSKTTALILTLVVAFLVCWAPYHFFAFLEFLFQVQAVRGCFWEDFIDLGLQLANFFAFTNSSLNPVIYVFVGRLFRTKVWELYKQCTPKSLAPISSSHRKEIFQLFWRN
Method: Assessment of Ligand Binding Affinity to B1 and B2 Receptors In Vitro by Competitive Radioligand Binding Assay
Binding assays were carried out on human recombinant bradykinin) receptors (expressed in CHO cells, hB1-A5) according to the Euroscreen Technical Data Sheet (Cat.No.:ES-091). 20 μg protein/tube was incubated with [3,4-prolyl-3,4-^3H(N)]-[Des-Arg^10] Kallidin as radioligand. Non specific binding was determined in the presence of 10 μM Lys-des-Arg^9-Bradykinin. The final incubation volume was 250 μl. Samples were incubated for 15 min. at 25° C. then were rapidly vacuum filtered through GF/B filters presoaked for at least 1 h in 0.5% PEI. Radioactivity was determined by liquid scintillation spectroscopy.
The ligand displacement by the compounds was determined using a minimum of seven concentrations in triplicate, and experiments were repeated at least two times. The specific radioligand binding is defined as the difference between total binding and the non-specific binding determined in the presence of an excess of unlabelled ligand. Results are expressed as a percent inhibition of specific binding obtained in the presence of RGH-478 or reference drugs. IC50 values (i.e. concentration of compound giving 50% inhibition of specific binding) were calculated from concentration-displacement curves by sigmoidal fitting using GraphPad Prism Software 4.0. Ki values (i.e. inhibition constants) were calculated using the Cheng-Prusoff equation. KD was determined from the Scatchard plot. (Editor-in-chief: Enna, S. J. and Williams, M. Current protocols in pharmacology vol. 1. John Wiley & sons Inc., 1998)

[2] = target: T2, recombinant human B1 receptors (Homo sapiens, UniProt P46663); assay: Functional assay: antagonist potency by cytosolic calcium measurement (plate reader fluorimeter) in CHO-B1 cells, agonist LysDABK; format: cell-based; conditions: CHO-B1 cells, inhibition of LysDABK (EC80)-evoked [Ca2+]i elevation; read-out: B1 func.
T2 construct: host or cells: CHO (CHO-B1)
T2 sequence (P46663 1-353): T1 sequence (P46663 1-353)
Method: Assessment of Antagonist Potency at B1 Receptors In Vitro by Measurement of Cytosolic Calcium Ion Concentration with a Plate Reader Fluorimeter in Cells Expressing Recombinant Human B1 Receptors
Chinese hamster ovary (CHO) cells stably expressing recombinant human B1 (CHO-B1, Euroscreen) receptors were cultured in Dulbecco's Modified Eagle's Medium (DMEM) containing 10% Fetal Calf Serum (FCS), 100 U/ml penicillin, 0.1 mg/ml streptomycin, 0.25 μg/ml amphotericin B, 1% Minimum Essential Medium Eagle (MEM), non essential amino acid solution, 600 μg/ml G418. Cells were kept at 37° C. in a humidified incubator in an atmosphere of 5% CO2/95% air and were passaged 1:4 three times a week. Cells were plated at 1.5−2.5×10^4 cell/well on standard 96-well microplates, measurements of cytosolic calcium ion concentration ([Ca^2+]i) were carried out 1-2 days after cell plating.
Measurements of [Ca^2+]i were carried out on CHO-B1 cells stably expressing human B1 receptors, respectively. Cells were grown in standard 96-well microplates and before the measurement were loaded with a fluorescent Ca^2+-sensitive dye, fluo-4/AM (2 μM): after removing the culture medium the dye was added to the cells (dissolved in assay buffer: 145 mM NaCl, 5 mM KCl, 2 mM MgCl2, 2 mM CaCl2, 10 mM HEPES, 20 mM D-glucose, 2 mM probenecid, 100 μl/well) and cells were incubated at 37° C. in a humidified incubator in an atmosphere of 5% CO2/95% air for 40-120 min. To stop dye loading cells were washed twice with assay buffer. After washing, various concentrations of the test compounds (diluted in extracellular medium from a DMSO stock solution, final DMSO concentration was <0.1%) or buffer were added to each well depending on the experimental setup. After incubation at 37° C. for 20-25 min. baseline and agonist-evoked changes of [Ca^2+]; were measured column by column with a plate reader fluorimeter (Fluoroskan Ascent, Labsystems). Excitation and detection of emission was carried out from the bottom of the plate. Filters used for Fluo-4: excitation filter 485 nm, emission filter 538 nm. The whole measurement process was performed at 37° C. and was controlled by custom software. Inhibitory potency of the test compounds was assessed by measuring the reduction in the agonist-evoked [Ca^2+]i-elevation in the presence of different concentrations of the compounds. The agonist was LysDABK for CHO-B1 cells. Agonist was applied at an EC80 concentration; the EC80-values were derived from daily determined dose-response curves. Fluorescence data were expressed as ΔF/F (fluorescence change normalized to baseline). All treatments on a single plate were measured in multiple wells. Data from all wells with the same treatment were averaged and the average values were used for analysis. Inhibitory potency of a compound at a single concentration point was expressed as percent inhibition of the control agonist response. Sigmoidal concentration-inhibition curves were fitted to the data (derived from at least three independent experiments) and IC50-values were determined as the concentration that produces half of the maximal inhibition caused by the compound.

SMILES	Ki [1] [nM]	IC50 [2] [nM]
Cn1nnc(-c2c(Cl)c3ccccc3n2-c2ccc(CNC(=O)C3(NC(=O)C(F)(F)F)CC3)cc2)n1 [Example 1, 1-(2,2,2-Trifluoro-acetylamino)-cyclopropanecarboxylic acid 4-[3-chloro-2-(2-methyl-2H-tetrazol-5-yl)-indol-1-yl]-benzylamide]	< 20	< 20
COc1cc(C(=O)NC2(C(=O)NCc3ccc(-n4c(-c5nnn(C)n5)c(Cl)c5ccccc54)cc3)CC2)on1 [Example 2, 3-Methoxy-isoxazole-5-carboxylic acid (1-{4-[3-chloro-2-(2-methyl-2H-tetrazol-5-yl)-indol-1-yl]-benzylcarbamoyl}-cyclopropyl)-amide]	< 20	< 20
COc1cc(C(=O)NC2(C(=O)NCc3ccc(-n4c(-c5nnn(C)n5)cc5ccccc54)cc3)CC2)on1 [Example 3, 3-Methoxy-isoxazole-5-carboxylic acid (1-{4-[2-(2-methyl-2H-tetrazol-5-yl)-indol-1-yl]-benzylcarbamoyl}-cyclopropyl)-amide]	< 20	< 20
Cn1nnc(-c2c(Cl)c3ccccc3n2-c2ccc(CNC(=O)C3(NC(=O)C(F)(F)F)CC3)c(F)c2)n1 [Example 4, 1-(2,2,2-Trifluoro-acetylamino)-cyclopropanecarboxylic acid 4-[3-chloro-2-(2-methyl-2H-tetrazol-5-yl)-indol-1-yl]-2-fluorobenzylamide]	< 20	< 20
COc1cc(C(=O)NC2(C(=O)NCc3ccc(-n4c(-c5nnc(C)o5)c(Cl)c5ccccc54)cc3)CC2)on1 [Example 5, 3-Methoxy-N-[1-({4-[3-chloro-2-(5-methyl-1,3,4-oxadiazol-2-yl)-1H-indol-1-yl]benzyl}carbamoyl)cyclopropyl]isoxazole-5-carboxamide]	< 20	< 20
Cc1nnc(-c2c(Cl)c3ccccc3n2-c2ccc(CNC(=O)C3(NC(=O)C(F)(F)F)CC3)cc2)o1 [Example 6, 1-(2,2,2-Trifluoro-acetylamino)-cyclopropanecarboxylic acid 4-[3-chloro-2-(5-methyl-[1,3,4]oxadiazol-2-yl)-indol-1-yl]-benzylamide]	20 to 100	20 to 100
COc1cc(C(=O)NC2(C(=O)NCc3ccc(-n4c(-c5nnnn5C)c(Cl)c5ccccc54)cc3)CC2)on1 [Example 7, 3-Methoxy-isoxazole-5-carboxylic acid (1-{4-[3-chloro-2-(1-methyl-1H-tetrazol-5-yl)-indol-1-yl]-benzylcarbamoyl}-cyclopropyl)-amide]	< 20	< 20
Cn1nnnc1-c1c(Cl)c2ccccc2n1-c1ccc(CNC(=O)C2(NC(=O)C(F)(F)F)CC2)cc1 [Example 8, 1-(2,2,2-Trifluoro-acetylamino)-cyclopropanecarboxylic acid 4-[3-chloro-2-(1-methyl-1H-tetrazol-5-yl)-indol-1-yl]-benzylamide]	< 20	< 20
COc1cc(C(=O)NC2(C(=O)NCc3ccc(-n4c(-c5noc(C)n5)c(Cl)c5ccccc54)cc3)CC2)on1 [Example 9, 3-Methoxy-isoxazole-5-carboxylic acid (1-{4-[3-chloro-2-(5-methyl-[1,2,4]oxadiazol-3-yl)-indol-1-yl]-benzylcarbamoyl}-cyclopropyl)-amide]	< 20	< 20
COC(=O)c1c(Cl)c2ccccc2n1-c1ccc(CNC(=O)C2(NC(=O)C(F)(F)F)CC2)cc1 [Example 10, 3-Chloro-1-[4-({[1-(2,2,2-trifluoro-acetylamino)-cyclopropanecarbonyl]-amino}-methyl)-phenyl]-1H-indole-2-carboxylic acid methyl ester]	< 20	< 20
COC(=O)c1c(Cl)c2ccccc2n1-c1ccc(CNC(=O)C2(NC(=O)c3cc(OC)no3)CC2)cc1 [Example 11, 3-Chloro-1-{4-[({1-[(3-methoxy-isoxazole-5-carbonyl)-amino]-cyclopropane-carbonyl}-amino)-methyl]-phenyl}-1H-indole-2-carboxylic acid methyl ester]	< 20	< 20
Cn1nnc(-c2c(Cl)c3cc(F)ccc3n2-c2ccc(CNC(=O)C3(NC(=O)C(F)(F)F)CC3)cc2)n1 [Example 12, 1-(2,2,2-Trifluoro-acetylamino)-cyclopropanecarboxylic acid 4-[3-chloro-5-fluoro-2-(2-methyl-2H-tetrazol-5-yl)-indol-1-yl]-benzylamide]	< 20	< 20
COc1cc(C(=O)NC2(C(=O)NCc3ccc(-n4c(-c5nnn(C)n5)c(Cl)c5cc(F)ccc54)cc3)CC2)on1 [Example 13, 3-Methoxy-isoxazole-5-carboxylic acid (1-{4-[3-chloro-5-fluoro-2-(2-methyl-2H-tetrazol-5-yl)-indol-1-yl]-benzylcarbamoyl}-cyclopropyl)-amide]	< 20	< 20
COC(=O)c1cc2ccccc2n1-c1ccc(CNC(=O)C2(NC(=O)c3cc(OC)no3)CC2)cc1 [Example 14, 1-{4-[({1-[(3-Methoxy-isoxazole-5-carbonyl)-amino]-cyclopropanecarbonyl}-amino)-methyl]-phenyl}-1H-indole-2-carboxylic acid methyl ester]	< 20	< 20
COc1cc(C(=O)NC2(C(=O)NCc3ccc(-n4c(-c5nnn(C)n5)c(Cl)c5ccccc54)cc3F)CC2)on1 [Example 15, 3-Methoxy-isoxazole-5-carboxylic acid (1-{4-[3-chloro-2-(2-methyl-2H-tetrazol-5-yl)-indol-1-yl]-2-fluorobenzylcarbamoyl}-cyclopropyl)-amide]	< 20	< 20
COc1cc(C(=O)NC2(C(=O)NCc3ccc(-n4c(-c5cnco5)c(Cl)c5ccccc54)cc3)CC2)on1 [Example 16, 3-Methoxy-isoxazole-5-carboxylic acid (1-{4-[3-chloro-2-(1,3-oxazol-5-yl)-indol-1-yl]-benzylcarbamoyl}-cyclopropyl)-amide]	< 20	< 20
Cn1nnc(-c2c(Cl)c3cc(Cl)ccc3n2-c2ccc(CNC(=O)C3(NC(=O)C(F)(F)F)CC3)cc2)n1 [Example 17, 1-(2,2,2-Trifluoro-acetylamino)-cyclopropanecarboxylic acid 4-[3,5-dichloro-2-(2-methyl-2H-tetrazol-5-yl)-indol-1-yl]-benzylamide]	< 20	< 20
